The values below are quoted from earlier work in patent US6410588B1, “Use of cannabinoids as anti-inflammatory agents” (priority 1998, dated 2002).

Structures are written as SMILES.

One series relates to nitric oxide (NO). Particulars: macrophages activated by LPS and IFNγ; cited from earlier work.
Series [1] relates to antibody formation against sheep red blood cells. The note with it: studies in mice; cited from earlier work.
In a further series the test system is IFNγ. The note with it: cited from earlier work.

Regarding `CCCCCc1cc(O)c2c(c1)OC(C)(C)C1CCC(C)=CC21` (stereo not shown) [THC, Delta-9-tetrahydrocannabinoid, reference compound], the “nitric oxide (NO) production” value in the series on nitric oxide (NO) was “inhibited”. Moreover, the “antibody formation against sheep red blood cells” value in series [1] was “suppresses antibody formation”. In addition, the IFNγ synthesis result in the series with IFNγ (high concentrations (5-24 μg/ml)) was “completely blocked IFNγ synthesis”. The IFNγ production result in the series with IFNγ (low concentrations) was “increase IFNγ production”.
